Assays:
[1] = target: T1, PI3Kα (Homo sapiens, UniProt P42336); test: PI3-Kinase HTRF assay, PI3Kα; assay type: biochemical; conditions: bins Greater than 10 μM and Greater than 1 μM to 10 μM; 10 μM ATP, PIP2 at 10 μM; read-out: IC50 P13Kα
T1 construct: purchased Millipore Corporation 14-602-K
In short: (§1)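 Competitive time-resolved FRET readout of PIP3 formed from 10 μM PIP2 with 10 μM ATP, 1 h at room temperature, by each recombinant human isoform (α, β, γ, δ; 0.25-0.3 μg/ml). Compound (2% DMSO final) was preincubated 15 min with enzyme and substrate; IC50 fitted over 20 μM–0.1 nM, 12 points.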

[2] = target: T2, PI3Kβ (Homo sapiens, UniProt P42338); test: PI3-Kinase HTRF assay, PI3Kβ; assay type: biochemical; conditions: bins Greater than 10 μM and Greater than 1 μM to 10 μM; 10 μM ATP, PIP2 at 10 μM
T2 construct: purchased Millipore Corporation 14-603-K
T2 sequence (P42338 whole entry): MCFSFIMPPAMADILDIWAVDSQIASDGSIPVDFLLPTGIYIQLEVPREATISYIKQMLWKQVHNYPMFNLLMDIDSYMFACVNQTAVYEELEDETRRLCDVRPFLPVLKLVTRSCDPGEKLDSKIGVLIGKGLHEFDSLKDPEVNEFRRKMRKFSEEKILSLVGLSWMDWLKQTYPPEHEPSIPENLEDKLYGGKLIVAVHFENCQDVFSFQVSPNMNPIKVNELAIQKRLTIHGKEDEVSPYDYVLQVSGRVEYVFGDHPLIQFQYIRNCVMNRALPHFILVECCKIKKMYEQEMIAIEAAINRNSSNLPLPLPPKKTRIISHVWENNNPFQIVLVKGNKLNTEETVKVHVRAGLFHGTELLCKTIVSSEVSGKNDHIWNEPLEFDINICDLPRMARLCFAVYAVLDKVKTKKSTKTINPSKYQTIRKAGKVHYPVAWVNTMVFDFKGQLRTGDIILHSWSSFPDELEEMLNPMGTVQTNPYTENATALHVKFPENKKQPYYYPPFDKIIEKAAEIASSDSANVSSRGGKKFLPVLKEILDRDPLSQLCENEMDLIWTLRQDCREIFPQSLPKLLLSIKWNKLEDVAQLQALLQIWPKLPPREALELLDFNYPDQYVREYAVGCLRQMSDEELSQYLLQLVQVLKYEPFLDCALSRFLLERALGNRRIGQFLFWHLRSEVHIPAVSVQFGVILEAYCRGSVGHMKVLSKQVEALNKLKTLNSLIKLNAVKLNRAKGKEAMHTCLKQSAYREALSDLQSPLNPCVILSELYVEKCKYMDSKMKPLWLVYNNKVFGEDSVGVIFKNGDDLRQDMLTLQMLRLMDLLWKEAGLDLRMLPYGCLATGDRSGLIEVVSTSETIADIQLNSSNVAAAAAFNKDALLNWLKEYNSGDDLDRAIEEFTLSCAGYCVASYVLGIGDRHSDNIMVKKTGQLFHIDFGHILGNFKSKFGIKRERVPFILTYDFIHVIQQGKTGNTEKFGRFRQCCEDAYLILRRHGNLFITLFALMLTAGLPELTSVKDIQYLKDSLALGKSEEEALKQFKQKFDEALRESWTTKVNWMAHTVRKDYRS
T2 sequence (P27986 whole entry partner): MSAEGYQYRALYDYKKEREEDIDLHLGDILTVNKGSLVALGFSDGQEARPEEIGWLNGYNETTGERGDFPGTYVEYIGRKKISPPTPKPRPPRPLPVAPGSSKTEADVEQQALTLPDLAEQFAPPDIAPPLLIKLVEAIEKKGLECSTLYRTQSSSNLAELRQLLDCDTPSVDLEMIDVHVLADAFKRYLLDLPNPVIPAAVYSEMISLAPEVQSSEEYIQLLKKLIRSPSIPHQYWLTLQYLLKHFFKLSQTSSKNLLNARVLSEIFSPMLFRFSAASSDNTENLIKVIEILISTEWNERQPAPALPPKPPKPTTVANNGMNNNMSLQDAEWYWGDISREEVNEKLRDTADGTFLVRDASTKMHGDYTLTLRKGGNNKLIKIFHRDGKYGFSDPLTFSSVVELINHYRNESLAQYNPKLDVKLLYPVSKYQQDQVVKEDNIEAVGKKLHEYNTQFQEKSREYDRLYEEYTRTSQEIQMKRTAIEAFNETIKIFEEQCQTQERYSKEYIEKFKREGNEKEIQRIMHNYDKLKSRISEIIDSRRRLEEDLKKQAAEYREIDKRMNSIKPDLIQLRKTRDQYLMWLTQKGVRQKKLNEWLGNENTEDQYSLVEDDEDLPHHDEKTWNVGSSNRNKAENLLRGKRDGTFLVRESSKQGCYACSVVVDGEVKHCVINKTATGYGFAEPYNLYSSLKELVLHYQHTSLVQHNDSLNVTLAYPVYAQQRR
In short: as §1

[3] = tested on: phospho-AKT in RAJI cells (PI3Kδ); test: PI3Kδ selective assay, phospho-AKT in RAJI cells; assay type: cell-based; conditions: RAJI cells stimulated with anti-human IgM; read-out: IC50 for phospho-AKT, RAJI cell model
Text: A compound's ability in selectively inhibiting PI3Kδ can be assessed using RAJI cells, i.e., B lymphocyte cells derived from lymphoma patients. Briefly, serum-starved RAJI cells are stimulated with anti-human IgM, thereby causing signaling through the B-cell receptors, as described in, for example, He et al., Leukemia Research (2009) 33: 798-802. B-cell receptor signaling is important for the activation, differentiation, and survival of B cells and certain B-cell derived cancers. Reduction of phospho-AKT is indicative of compounds that may inhibit B-cell proliferation and function in certain diseases. By monitoring the reduction of phospho-AKT in stimulated RAJI cells (using for example, phospho-AKT antibodies), a compound's potential efficacy in selectively inhibiting PI3Kδ can be assessed.

[4] = tested on: phospho-AKT in RAW 264.7 cells (PI3Kγ); test: PI3Kγ selective assay, phospho-AKT in RAW 264.7 cells; assay type: cell-based; conditions: Mus musculus, RAW264.7; stimulated with C5a; ranges less than 100 nM and between 100 nM and 1 μM (given as 100-1000); read-out: IC50 for phospho-AKT, RAW 264.7 cell model
Text: A compound's ability in selectively inhibiting PI3Kγ can be assessed using RAW264.7 macrophages. Briefly, serum-starved PAW264.7 cells are stimulated with a known GPCR agonist C5a. (See, e.g., Camps et al., Nature Medicine (2005) 11(9): 936-943). Cells can be treated with test compounds prior to, simultaneously with, or subsequent to the stimulation by C5a. RAW 264.7 cells respond to the complement component fragment C5a through activation of the C5a receptor, and the C5a receptor activates macrophages and induces cell migration. Test compounds' ability to inhibit C5a-mediated AKT phosphorylation is indicative of selective inhibition of PI3Kγ. Thus, by monitoring the reduction of phospho-AKT in stimulated RAW 264.7 cells (using for example, phospho-AKT antibodies), a compound's potential efficacy in selectively inhibiting PI3Kγ can be assessed.

T1 sequence (P42336 whole entry): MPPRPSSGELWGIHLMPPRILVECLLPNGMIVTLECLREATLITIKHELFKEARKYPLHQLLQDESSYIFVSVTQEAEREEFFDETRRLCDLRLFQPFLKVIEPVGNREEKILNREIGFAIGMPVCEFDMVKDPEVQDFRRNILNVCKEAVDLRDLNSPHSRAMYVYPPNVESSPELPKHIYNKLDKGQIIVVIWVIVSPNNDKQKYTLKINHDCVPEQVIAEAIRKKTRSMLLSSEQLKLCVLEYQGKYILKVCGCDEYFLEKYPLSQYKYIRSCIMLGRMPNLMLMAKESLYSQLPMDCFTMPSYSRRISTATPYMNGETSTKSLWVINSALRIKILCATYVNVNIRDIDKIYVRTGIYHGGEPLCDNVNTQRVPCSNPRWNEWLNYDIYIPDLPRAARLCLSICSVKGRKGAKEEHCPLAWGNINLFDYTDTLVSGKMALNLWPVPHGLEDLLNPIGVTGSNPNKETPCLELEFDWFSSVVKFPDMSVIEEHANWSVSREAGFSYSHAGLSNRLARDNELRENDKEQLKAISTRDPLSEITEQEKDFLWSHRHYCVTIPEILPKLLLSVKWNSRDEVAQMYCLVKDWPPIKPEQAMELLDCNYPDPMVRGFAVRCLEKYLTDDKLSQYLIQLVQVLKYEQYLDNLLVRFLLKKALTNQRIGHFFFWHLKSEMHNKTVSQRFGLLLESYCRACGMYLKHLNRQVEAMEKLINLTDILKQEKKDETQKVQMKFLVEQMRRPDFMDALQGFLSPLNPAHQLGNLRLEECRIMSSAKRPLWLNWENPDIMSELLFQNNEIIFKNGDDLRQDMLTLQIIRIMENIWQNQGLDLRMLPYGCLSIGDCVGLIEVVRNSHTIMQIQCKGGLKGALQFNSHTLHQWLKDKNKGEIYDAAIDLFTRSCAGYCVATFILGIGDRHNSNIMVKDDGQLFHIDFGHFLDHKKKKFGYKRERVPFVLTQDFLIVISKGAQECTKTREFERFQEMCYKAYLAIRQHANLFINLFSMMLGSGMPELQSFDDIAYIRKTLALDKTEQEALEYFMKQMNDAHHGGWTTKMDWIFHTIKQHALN
T1 sequence (P27986 whole entry partner): as the sequence (P27986 whole entry partner) above

Structure (SMILES) | IC50 [1] [nM] | IC50 [2] [nM] | IC50 [3] [nM] | IC50 [4] [nM]
CC(C)n1c([C@H](C)Nc2ncnc(N)c2C#N)cc2cccc(Cl)c2c1=O [Compound 329] | 1000 to 10000 | 1000 to 10000 | < 100 | 100 to 1000
C[C@H](Nc1nc(N)ncc1C#N)c1cc2cccc(Cl)c2c(=O)n1-c1cccc(C#N)c1 [Compound 285] | 1000 to 10000 | – | < 100 | < 100
N#Cc1cnc(N)nc1NCc1cc2cccc(Cl)c2c(=O)n1-c1ccccc1 [Compound 241] | 1000 to 10000 | 1000 to 10000 | < 100 | < 100
COc1ncc(-c2cnc(N)nc2N[C@@H](C)c2cc3cccc(Cl)c3c(=O)n2-c2ccccc2)s1 [Compound 382] | – | 1000 to 10000 | < 100 | < 100
COc1ccc(-c2cnc(N)nc2N[C@@H](C)c2cc3cccc(Cl)c3c(=O)n2-c2ccccc2)cn1 [Compound 383] | 1000 to 10000 | – | < 100 | < 100
C[C@H](Nc1nc(N)ncc1-c1cnc(S(C)(=O)=O)s1)c1cc2cccc(Cl)c2c(=O)n1-c1ccccc1 [Compound 403] | – | 1000 to 10000 | < 100 | < 100
CC(C)C(=O)c1cnc(N)nc1N[C@@H](C)c1cc2cccc(Cl)c2c(=O)n1-c1ccccc1 [Compound 424] | 1000 to 10000 | – | < 100 | 100 to 1000
C[C@H](Nc1nc(N)ncc1-c1cn[nH]c1)c1cc2cccc(Cl)c2c(=O)n1-c1ccccc1 [Compound 378] | – | – | < 100 | 100 to 1000
C[C@H](Nc1nc(N)ncc1-c1cscn1)c1cc2cccc(-c3ccc(=O)n(C)c3)c2c(=O)n1-c1ccccc1 [Compound 393] | – | – | < 100 | 100 to 1000
COc1ncc(-c2cccc3cc([C@H](C)Nc4nc(N)ncc4C#N)n(C(C)C)c(=O)c23)cn1 [Compound 327] | 1000 to 10000 | – | < 100 | 100 to 1000
COc1cccc(-n2c([C@H](C)Nc3nc(N)ncc3C#N)cc3cccc(Cl)c3c2=O)c1 [Compound 288] | – | 1000 to 10000 | < 100 | < 100

Results, then the molecule that gave them:

IC50 [1] [nM] | IC50 [2] [nM] | IC50 [3] [nM] | IC50 [4] [nM] | Structure (SMILES)
1000 to 10000 | 1000 to 10000 | < 100 | < 100 | C[C@H](Nc1nc(N)ncc1-c1cccc(S(=O)(=O)C2CC2)c1)c1cc2cccc(Cl)c2c(=O)n1-c1ccccc1 [Compound 417]
– | 1000 to 10000 | < 100 | < 100 | Cc1ccc(NS(C)(=O)=O)cc1-c1cnc(N)nc1N[C@@H](C)c1cc2cccc(Cl)c2c(=O)n1-c1ccccc1 [Compound 412]
1000 to 10000 | – | < 100 | < 100 | CCS(=O)(=O)c1cccc(-c2cnc(N)nc2N[C@@H](C)c2cc3cccc(Cl)c3c(=O)n2-c2ccccc2)c1 [Compound 416]
1000 to 10000 | 1000 to 10000 | < 100 | < 100 | C[C@H](Nc1nc(N)ncc1-c1cccc(N(C)S(C)(=O)=O)c1)c1cc2cccc(Cl)c2c(=O)n1-c1ccccc1 [Compound 408]
1000 to 10000 | – | < 100 | < 100 | C[C@H](Nc1nc(N)ncc1-c1cccc(S(N)(=O)=O)c1)c1cc2cccc(Cl)c2c(=O)n1-c1ccccc1 [Compound 414]
1000 to 10000 | – | < 100 | < 100 | CNS(=O)(=O)c1cccc(-c2cnc(N)nc2N[C@@H](C)c2cc3cccc(Cl)c3c(=O)n2-c2ccccc2)c1 [Compound 418]
1000 to 10000 | 1000 to 10000 | < 100 | < 100 | C[C@H](Nc1nc(N)ncc1-c1cccc(S(C)(=O)=O)c1)c1cc2cccc(C(F)(F)F)c2c(=O)n1-c1ccccc1 [Compound 428]
1000 to 10000 | – | < 100 | < 100 | C[C@H](Nc1ncncc1-c1cccc(S(=O)(=O)N(C)C)c1)c1cc2cccc(Cl)c2c(=O)n1-c1ccccc1 [Compound 422]
– | – | < 100 | < 100 | C[C@H](Nc1nc(N)ncc1-c1cccc(NS(=O)(=O)N(C)C)c1)c1cc2cccc(Cl)c2c(=O)n1-c1ccccc1 [Compound 410]

From patent publication US8785470B2, “Heterocyclic compounds and uses thereof” (Infinity Pharmaceuticals, Inc., priority 2011, dated 2014)
